Results taken from article PMC3827197, “Antidiabetic Effects of Chamomile Flowers Extract in Obese Mice through Transcriptional Stimulation of Nutrient Sensors of the Peroxisome Proliferator-Activated Receptor (PPAR) Family” (PLoS ONE, 2013).

Experiments:
[1] = tested on: PPARα target genes in HepG2 cells; experiment: qPCR gene expression in HepG2 hepatocytes, with PPARα siRNA knockdown; conditions: 300 µg/ml CFE or 10 µM GW7647, 24 h, vs vehicle
Protocol: Specificity of PPARα-driven modulation was investigated in siRNA-mediated knockdown in human hepatocytes and subsequent real-time PCR detection. Therefore, HepG2 cells were seeded in 24-well-plates (Nunc) at a density of 40,000 cells per well.

PPARα = target: T1, PPARα (Homo sapiens, UniProt Q07869); experiment: Reporter gene assay of transcriptional activation, PPARα (HEK 293, GAL4-PPAR-LBD); type: cell-based; conditions: relative to reference compound GW7647
T1 construct: HEK 293 cells were stably expressing a GAL4-PPAR-LBD fusion protein and an UAS-beta-lactamase reporter gene; host or cells: HEK 293
T1 sequence (Q07869 239-466 limits assumed): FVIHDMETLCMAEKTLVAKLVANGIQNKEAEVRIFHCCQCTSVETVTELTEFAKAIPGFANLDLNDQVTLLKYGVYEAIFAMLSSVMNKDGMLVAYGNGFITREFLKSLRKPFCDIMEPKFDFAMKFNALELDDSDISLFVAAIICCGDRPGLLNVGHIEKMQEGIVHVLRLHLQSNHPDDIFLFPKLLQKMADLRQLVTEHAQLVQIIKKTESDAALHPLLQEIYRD
Protocol: Transcriptional activation of PPARs was assessed in cellular reporter gene assays according to the manufacturer’s protocols (GeneBLAzer PPAR alpha/gamma/delta Assay, Life Technologies). Briefly, HEK 293 cells were stably expressing a GAL4-PPAR-LBD fusion protein and an UAS-beta-lactamase reporter gene. Cells were incubated with different concentrations of compounds resulting in differential expression of the reporter gene. Binding and activation assays were measured with the POLARstar Omega (BMG LABTECH, Offenburg, Germany). Data were fitted using GraphPad Prism 5.0 according equation: Y=Bottom + (Top-Bottom)/(1+10^((LogEC50-X)*HillSlope)) with variable Hill slope.

HFD-fed C57BL/6 mice = experiment: Therapy study in insulin-resistant obese HFD-fed (DIO) mice; conditions: CFE 200 mg/kg/d or RGZ 4 mg/kg/d
Protocol: Animal studies were approved by the State Office of Health and Social Affairs (Berlin, Germany) and were carried out according internationally approved guidelines. All animals were singly housed under temperature-, humidity- and light-controlled conditions (22°C, 50% humidity, 12 h light/12 h dark cycle). Mice had ad libitum access to food and water. Mice, food and water were weighed in a regularly to determine changes in body weight and food and water intake.
For the therapy study, we subjected male 6-week old C57BL/6 mice to an HFD for 18 weeks to induce obesity and insulin resistance. Prior to compound treatment, mice were weighed and distributed uniformly to three groups (n=9-14 each). […] After 2 weeks of treatment mice were subjected to an oral glucose tolerance test (OGTT). […]
Mice were fasted overnight before being subjected to an oral glucose (Sigma-Aldrich) dose of 2 g/kg body weight. Blood was taken from the tail vein at the indicated time points and blood glucose was analysed in a Hemocue B-Glucose analyser (Hemocue, Großostheim, Germany). […]
Whole blood glucose was analysed in a Hemocue B-Glucose analyser. Plasma glucose was measured using the Amplex Red Glucose Assay Kit (Life Technologies). Plasma triacylglycerol, NEFA, HDL and LDL/VLDL cholesterol and plasma alanine transaminase (ALT) were determined with colorimetric quantification kits (Biovision, Milpitas, CA, USA). […]

CC(C)(Sc1ccc(CCN(CCCCC2CCCCC2)C(=O)NC2CCCCC2)cc1)C(=O)O [GW7647]
Expression of PPARα target genes (ACOX2, CPT 2, ECH1, HMGCS2) [1]: significantly induced expression | Efficacy PPARα (PPARα): 100%

CN(CCOc1ccc(CC2SC(=O)NC2=O)cc1)c1ccccn1 (stereo not shown) [RGZ, rosiglitazone]
Gene expression of inflammatory markers in WAT (HFD-fed C57BL/6 mice; 6 weeks, qPCR): remained largely unchanged | HOMA-IR insulin resistance, decrease (HFD-fed C57BL/6 mice; after 2 weeks): 67%
